Data reported in patent publication US20200308192A1, “NOVEL THIAZOLO[5,4-D]PYRIMIDINE DERIVATIVES AS INVERSE AGONISTS OF A2A ADENOSINE RECEPTORS” (Universita degli Studi di Ferrara, priority 2016, published 2020).
Like-named read-outs stand apart in the source and are kept apart here.

Tests used:
[1] = molecular target: T1, human adenosine A2A receptor (Homo sapiens, UniProt P29274); test: cAMP assay in hA2A CHO cells, basal or with CGS 21680; type: cell-based; set-up: expressed in transfected cells; host or cells: CHO cells; conditions: for IC50: mean ± SEM
Method: For the membranes preparation the culture medium was removed, and the cells were washed with a saline phosphate-buffered solution collected with hypotonic buffer (5 mM Tris HCl, 1 mM EDTA, pH 7.4).
CHO cells transfected with the adenosine receptors were washed with a phosphate-buffered saline solution, detached with trypsin and centrifuged for 10 minutes at 200 g. […] The reaction was terminated by addition of cold 6% trichloroacetic acid (TCA). The TCA suspension was centrifuged at 2000 g for 10 minutes at 4° C. and the supernatant was extracted four times with diethyl ether with water. The final aqueous solution was tested for the cAMP levels by a competition protein binding assay with a cAMP-binding protein. The standard samples of cAMP (0-10 pmoli) were added to each test tube containing the incubation buffer (trizma base 0.1 M, aminophylline 8.0 mM, 2 mercaptoethanol 6.0 mM, pH 7.4) and [^3H]-cAMP. The binding protein previously prepared from beef adrenals, was added to the samples previously incubated at 4° C. for 150 minutes, and after the addition of charcoal were centrifuged at 2000 g for 10 min.
(§1) The statistical analysis of the data was performed using ANOVA followed by Dunnett's test. […] KH and KL were obtained by using a two sites binding model and Graph PAD Prism (San Diego, Calif., USA). The values of IC50 obtained in the cAMP assays were calculated by non-linear regression analysis using the equation for a sigmoid concentration-response curve. All data are expressed as the mean±SEM of four independent experiments each performed in duplicate for in vitro assays and n=8-10 mice/group for in vivo assays.

[2] = molecular target: T2, human adenosine A3 receptor (Homo sapiens, UniProt P0DMS8); test: Competition binding, [125I]-ABMECA, hA3 CHO membranes; conditions: mean ± SEM
T2 construct: expressed in transfected cells; host or cells: CHO cells (membrane preparation)
T2 sequence (P0DMS8 1-318): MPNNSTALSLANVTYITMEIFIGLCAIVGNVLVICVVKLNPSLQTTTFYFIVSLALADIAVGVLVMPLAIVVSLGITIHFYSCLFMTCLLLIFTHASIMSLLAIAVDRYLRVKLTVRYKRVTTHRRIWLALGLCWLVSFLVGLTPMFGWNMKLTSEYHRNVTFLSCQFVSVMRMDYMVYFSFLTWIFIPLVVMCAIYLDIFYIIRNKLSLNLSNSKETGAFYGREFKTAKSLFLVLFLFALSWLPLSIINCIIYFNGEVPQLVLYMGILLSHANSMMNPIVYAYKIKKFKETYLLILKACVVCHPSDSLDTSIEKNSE

[3] = molecular target: T3, human adenosine A2B receptor (Homo sapiens, UniProt P29275); test: cAMP assay, inhibition of NECA-stimulated cAMP levels in hA2B CHO cells; conditions: read-out: Receptor hA2B IC50; cAMP stimulated by NECA (100 nM); mean ± SEM
T3 sequence (P29275 1-332): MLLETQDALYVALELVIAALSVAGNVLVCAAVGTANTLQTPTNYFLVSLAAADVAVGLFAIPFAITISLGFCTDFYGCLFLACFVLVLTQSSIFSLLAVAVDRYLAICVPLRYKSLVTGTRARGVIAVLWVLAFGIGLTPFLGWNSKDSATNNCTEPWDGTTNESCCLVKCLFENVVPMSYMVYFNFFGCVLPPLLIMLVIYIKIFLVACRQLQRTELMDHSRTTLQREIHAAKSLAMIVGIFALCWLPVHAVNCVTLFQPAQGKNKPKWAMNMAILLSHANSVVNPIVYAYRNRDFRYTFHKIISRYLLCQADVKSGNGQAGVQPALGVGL

[4] = molecular target: T1, human adenosine A2A receptor; test: Competition binding, [3H]-ZM 241385, hA2A CHO membranes
[5] = molecular target: T4, human adenosine A1 receptor (Homo sapiens, UniProt P30542); test: Competition binding, [3H]-DPCPX, hA1 CHO membranes; conditions: read-out: Receptor hA1 Ki, mean ± SEM
T4 sequence (P30542 1-326): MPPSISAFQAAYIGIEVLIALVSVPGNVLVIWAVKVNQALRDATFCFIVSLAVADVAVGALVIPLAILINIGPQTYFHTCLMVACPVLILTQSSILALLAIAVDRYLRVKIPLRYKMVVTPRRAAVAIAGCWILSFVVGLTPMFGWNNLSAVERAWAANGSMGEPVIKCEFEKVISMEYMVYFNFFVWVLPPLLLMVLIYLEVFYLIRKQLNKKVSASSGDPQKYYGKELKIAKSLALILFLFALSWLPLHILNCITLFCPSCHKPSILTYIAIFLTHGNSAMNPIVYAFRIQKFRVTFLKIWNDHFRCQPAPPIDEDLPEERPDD

[6] = tested on: Female CD1 mice; test: Writhing test (acetic acid-induced abdominal constrictions); type: in vivo; conditions: for Dose-response curve, Writhing Test: P<0.001, one-way ANOVA
Method: Female CD1 mice (22-24 g) were obtained from Charles River (Milano, Italia). The animals were kept under standard environmental temperature conditions (22±2° C.) and under moisture-controlled conditions with 12 hours light/dark cycle and food and water ad libitum. The animals were acclimated to the laboratory settings for at least 1 hour before testing and were used only once throughout the experiments. All the procedures used in the present study were carried out in accordance with the European Communities Council Directives (86/609/EEC) and the National Laws and Policies (D.L.116/92) after authorization from the Italian Ministry for Health (4/2014-B). In addition, the experimental procedures were in agreement with the current guidelines for the care of laboratory animals and the ethical guidelines for investigations of experimental pain in conscious animals (Couto M. Methods Mol Biol 2011; 770:579-599).
The acetic acid-induced writhing response was performed after intraperitoneal injection of 10 ml/Kg of 0.6% acetic acid solution. The response to the abdominal constrictions induced by acetic acid was evaluated after the intraperitoneal injection of 10 ml/kg of a 0.6% solution of acetic acid. The compounds under evaluation were dissolved in DMSO and then diluted in a saline solution. The carrier consists of saline solution and 5% of DMSO. A writhe is indicated by stretching of the abdomen followed by the extension of the hind limbs. The animals (8 mice per group) were placed singly in a glass cylinder and the number of writhing episodes of abdominal contractions was counted in a 30 minutes period. The compounds were administered intraperitoneally 15 minutes before injection of acetic acid solution.
as §1

[7] = CGS 21680 (10 nM), read-out: IC50 cAMP, in presence of CGS 21680
[8] = CGS 21680 (10 nM), read-out: Emax cAMP, in presence of CGS 21680
[9] = basal cAMP, read-out: IC50 cAMP, in absence of CGS 21680
[10] = efficacy versus basal cAMP production, read-out: Emax cAMP, in absence of CGS 21680
[11] = read-out: Receptor hA2A Ki, [3H]-ZM 241385, single affinity value, mean ± SEM

T1 sequence (P29274 whole entry): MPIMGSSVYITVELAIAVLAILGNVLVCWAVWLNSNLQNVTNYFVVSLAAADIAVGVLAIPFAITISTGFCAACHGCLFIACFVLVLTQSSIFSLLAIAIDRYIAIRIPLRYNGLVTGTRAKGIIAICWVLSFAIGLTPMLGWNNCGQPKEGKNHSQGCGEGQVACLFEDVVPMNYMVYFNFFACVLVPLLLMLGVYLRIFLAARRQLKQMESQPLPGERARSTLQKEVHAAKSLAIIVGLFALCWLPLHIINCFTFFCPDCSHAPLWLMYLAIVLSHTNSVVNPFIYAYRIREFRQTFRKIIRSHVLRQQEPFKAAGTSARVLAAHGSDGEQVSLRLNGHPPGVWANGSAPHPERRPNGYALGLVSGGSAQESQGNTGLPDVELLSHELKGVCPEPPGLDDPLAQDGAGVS

SMILES: COc1ccc(CNc2nc(N)c3nc(-c4ccco4)sc3n2)cc1 [Compound 2, 2-(furan-2-yl)-N^5-(4-methoxybenzyl)[1,3]thiazolo[5,4-d]pyrimidin-5,7-diamine]
- IC50 [1, 7]: 123 ± 11 nM
- Emax [1, 8]: 116 ± 11%
- IC50 [1, 9]: 187 ± 16 nM
- Emax [1, 10]: 38 ± 4%
- Ki [2]: 381 ± 37 nM
- IC50 [3]: 283 ± 27 nM
- Ki [4, 11]: 171 ± 16 nM
- Ki [5]: 163 ± 12 nM

SMILES: COc1cccc(CNc2nc(N)c3nc(-c4ccco4)sc3n2)c1 [Compound 3, 2-(furan-2-yl)-N^5-(3-methoxybenzyl)[1,3]thiazolo[5,4-d]pyrimidin-5,7-diamine]
- Ki [2]: 92 ± 8 nM
- IC50 [3]: 452 ± 42 nM
- Ki [4]: 26 ± 2 nM
- Ki [5]: 8.16 ± 0.72 nM
- Dose-response curve, Writhing Test [6]: dose-dependent effect
- Anti-nociceptive activity, Writhing Test ([6]; intraperitoneal): potency similar to morphine

SMILES: Nc1nc(NCc2cccc(O)c2)nc2sc(-c3ccco3)nc12 [Compound 4, 3-(((7-amino-2-(furan-2-yl)[1,3]thiazolo[5,4-d]pyrimidin-5-yl)amino)methyl) phenol]
- IC50 [1, 7]: 22 ± 2 nM
- Emax [1, 8]: 139 ± 13%
- IC50 [1, 9]: 27 ± 2 nM
- Emax [1, 10]: 68 ± 7%
- Ki [2]: 55 ± 4 nM
- IC50 [3]: 24 ± 3 nM
- Ki [4, 11]: 20 ± 2 nM
- Ki [5]: 27 ± 3 nM

SMILES: Nc1nc(NCc2ccccn2)nc2sc(-c3ccco3)nc12 [Compound 8, 2-(furan-2-yl)-N^5-(pyridin-2-ylmethyl)[1,3]thiazolo[5,4-d]pyrimidin-5,7-diamine]
- IC50 [1, 7]: 1.3 ± 0.1 nM
- Emax [1, 8]: 128 ± 11%
- IC50 [1, 9]: 0.68 ± 0.06 nM
- Emax [1, 10]: 54 ± 5%
- Ki [2]: 59 ± 5 nM
- IC50 [3]: 95 ± 9 nM
- Ki [4, 11]: 0.42 ± 0.04 nM
- Ki [5]: 28 ± 3 nM

SMILES: Nc1nc(NCc2cccc(F)c2)nc2sc(-c3ccco3)nc12 [Compound 9, N^5-(3-fluorobenzyl)-2-(furan-2-yl)[1,3]thiazolo[5,4-d]pyrimidin-5,7-diamine]
- Ki [2]: 35 ± 4 nM
- IC50 [3]: 103 ± 10 nM
- Ki [4, 11]: 0.82 ± 0.07 nM
- Ki [5]: 8.51 ± 0.76 nM

SMILES: CCCNc1nc(N)c2nc(-c3ccco3)sc2n1 [Compound 11, 2-(furan-2-yl)-N^5-propyl-[1,3]thiazolo[5,4-d]pyrimidin-5,7-diamine]
- Ki [2]: 35 ± 4 nM
- IC50 [3]: 323 ± 28 nM
- Ki [4, 11]: 17 ± 2 nM
- Ki [5]: 64 ± 10 nM

SMILES: CCCCNc1nc(N)c2nc(-c3ccco3)sc2n1 [Compound 12, N^5-butyl-2-(furan-2-yl)[1,3]thiazolo[5,4-d]pyrimidin-5,7-diamine]
- Ki [2]: 23 ± 3 nM
- IC50 [3]: 185 ± 17 nM
- Ki [4, 11]: 8.21 ± 0.78 nM
- Ki [5]: 41 ± 5 nM

SMILES: Nc1nc(NCc2ccsc2)nc2sc(-c3ccco3)nc12 [Compound 13, 2-(furan-2-yl)-N^5-(thiophen-3-ylmethyl)[1,3]thiazolo[5,4-d]pyrimidin-5,7-diamine]
- IC50 [1, 7]: 0.41 ± 0.03 nM
- Emax [1, 8]: 137 ± 13%
- IC50 [1, 9]: 0.36 ± 0.04 nM
- Emax [1, 10]: 67 ± 6%
- Ki [2]: 3.14 ± 0.29 nM
- IC50 [3]: 8.96 ± 0.82 nM
- Ki [4, 11]: 0.25 ± 0.02 nM
- Ki [5]: 8.12 ± 0.71 nM

SMILES: Nc1nc(NCc2ccncc2)nc2sc(-c3ccco3)nc12 [Compound 14, 2-(furan-2-yl)-N^5-(pyridin-4-ylmethyl)[1,3]thiazolo[5,4-d]pyrimidin-5,7-diamine]
- IC50 [1, 7]: 18.7 ± 1.6 nM
- Emax [1, 8]: 122 ± 10%
- IC50 [1, 9]: 15.3 ± 1.2 nM
- Emax [1, 10]: 43 ± 4%
- Ki [2]: 827 ± 48 nM
- IC50 [3]: 33 ± 2 nM
- Ki [4, 11]: 12 ± 1 nM
- Ki [5]: 47 ± 4 nM

SMILES: Nc1nc(NCc2cnccn2)nc2sc(-c3ccco3)nc12 [Compound 15, 2-(furan-2-yl)-N^5-(pyrazin-2-ylmethyl)[1,3]thiazolo[5,4-d]pyrimidin-5,7-diamine]
- IC50 [1, 7]: 11.3 ± 0.96 nM
- Emax [1, 8]: 117 ± 10%
- IC50 [1, 9]: 8.27 ± 0.72 nM
- Emax [1, 10]: 48 ± 4%
- Ki [2]: 157 ± 14 nM
- IC50 [3]: 13.2 ± 1.2 nM
- Ki [4, 11]: 5.14 ± 0.48 nM
- Ki [5]: 25 ± 4 nM

SMILES: Nc1nc(NCCc2ccco2)nc2sc(-c3ccco3)nc12 [Compound 16, 2-(furan-2-yl)-N^5-(2-(furan-2-yl)ethyl)[1,3]thiazolo[5,4-d]pyrimidin-5,7-diamine]
- IC50 [1, 7]: 4.26 ± 0.37 nM
- Emax [1, 8]: 121 ± 11%
- IC50 [1, 9]: 2.93 ± 0.22 nM
- Emax [1, 10]: 56 ± 6%
- Ki [2]: 23 ± 2 nM
- IC50 [3]: 14 ± 1 nM
- Ki [4, 11]: 2.15 ± 0.19 nM
- Ki [5]: 5.24 ± 0.46 nM

SMILES: Nc1nc(NCCc2cccnc2)nc2sc(-c3ccco3)nc12 [Compound 17, 2-(furan-2-yl)-N^5-(2-(pyridin-3-yl)ethyl)[1,3]thiazolo[5,4-d]pyrimidin-5,7-diamine]
- IC50 [1, 7]: 0.35 ± 0.04 nM
- Emax [1, 8]: 141 ± 14%
- IC50 [1, 9]: 0.29 ± 0.03 nM
- Emax [1, 10]: 71 ± 7%
- Ki [2]: 174 ± 11 nM
- IC50 [3]: 4.21 ± 0.32 nM
- Ki [4, 11]: 0.24 ± 0.01 nM
- Ki [5]: 2.61 ± 0.22 nM

SMILES: CN1CC[C@]23c4c5ccc(O)c4O[C@H]2[C@@H](O)C=C[C@H]3[C@H]1C5 [morphine, reference compound]
- ED50 ([6]; Mus musculus, ip, intraperitoneal, 15 minutes before acetic acid): 0.123 ± 0.01 mg/kg
- Dose-response curve, Writhing Test [6]: dose-dependent effect
